Legend:
Format in all cases: in vivo
Matricaria inodora [1] = experiment: Herbicidal action post-emergence, greenhouse pot test; conditions: application rate 80 g/ha
Procedure: (§1) Seeds of mono- and dicotyledonous weed plants and crop plants were laid out in sandy loam soil in plastic or wood-fiber pots, covered with soil and grown under controlled growth conditions in a greenhouse. 2 to 3 weeks after sowing, the trial plants were treated at the one-leaf stage. The compounds of the invention formulated in the form of wettable powders (WP) or as emulsion concentrates (EC) were then sprayed onto the green parts of the plant as an aqueous suspension or emulsion with addition of 0.5% additive at a water application rate equivalent to 600 L/ha. After the trial plants had stood for about 3 weeks in the greenhouse, under optimal growth conditions, the effect of the preparations was scored visually by comparison with untreated controls. For example, 100% efficacy=plants have died, 0% efficacy=like control plants. Tables A1 to A16 below show the efficacies of selected compounds of the general formula (I) according to tables I.1 to I.50 on various harmful plants and an application rate corresponding to 80 g/ha or lower that were obtained by the aforementioned trial method.

Echinochloa crus-galli [2] = experiment: as above; conditions: application rate 80 g/ha
Procedure: as §1

Polygonum convolvulus [3] = experiment: as above; conditions: application rate 80 g/ha
Procedure: as §1

Abutilon theophrasti [4] = experiment: as above; conditions: application rate 80 g/ha
Procedure: as §1

Lolium rigidum [5] = experiment: as above; conditions: application rate 80 g/ha
Procedure: as §1

Stellaria media [6] = experiment: as above; conditions: application rate 80 g/ha
Procedure: as §1

Pharbitis purpurea [7] = experiment: as above; conditions: application rate 80 g/ha
Procedure: as §1

Amaranthus retroflexus [8] = experiment: as above
Procedure: as §1

Veronica persica [9] = experiment: as above; conditions: application rate 80 g/ha
Procedure: as §1

Setaria viridis [10] = experiment: as above; conditions: application rate 80 g/ha
Procedure: as §1

Viola tricolor [11] = experiment: as above
Procedure: as §1

Matricaria inodora [12] = experiment: Herbicidal action pre-emergence, greenhouse pot test
Text: Seeds of mono- and dicotyledonous weeds and crop plants were laid out in plastic or organic plant pots and covered with soil. The compounds of the invention formulated in the form of wettable powders (WP) or as emulsion concentrates (EC) were then applied to the surface of the covering soil as an aqueous suspension or emulsion with addition of 0.5% additive at a water application rate equivalent to 600 L/ha. After the treatment, the pots were placed in a greenhouse and kept under good growth conditions for the test plants. After about 3 weeks, the efficacy of the preparations was scored visually as a percentage by comparison with untreated controls. For example, 100% efficacy=plants have died. 0% efficacy=like control plants. Tables B1 to B17 below show the efficacies of selected compounds of the general formula (I) […] aforementioned trial method.

Hordeum murinum = experiment: as above; conditions: application rate 320 g/ha
Text: (§2) Seeds of mono- and dicotyledonous weeds and crop plants were laid out in plastic or organic plant pots and covered with soil. The compounds of the invention formulated in the form of wettable powders (WP) or as emulsion concentrates (EC) were then applied to the surface of the covering soil as an aqueous suspension or emulsion with addition of 0.5% additive at a water application rate equivalent to 600 L/ha. After the treatment, the pots were placed in a greenhouse and kept under good growth conditions for the test plants. After about 3 weeks, the efficacy of the preparations was scored visually as a percentage by comparison with untreated controls. For example, 100% efficacy=plants have died. 0% efficacy=like control plants. Tables B1 to B17 below show the efficacies of selected compounds of the general formula (I) according to tables I.1 to I.50 on various harmful plants and an application rate corresponding to 320 g/ha or lower that were obtained by the aforementioned trial method.

Echinochloa crus-galli [13] = experiment: as above; conditions: application rate 320 g/ha
Text: as §2

Polygonum convolvulus [14] = experiment: as above
Text: as §2

Abutilon theophrasti [15] = experiment: as above
Text: as §2

Lolium rigidum [16] = experiment: as above
Text: as §2

Stellaria media [17] = experiment: as above
Text: as §2

Alopecurus myosuroides [18] = experiment: as above; conditions: application rate 320 g/ha
Text: as §2

Pharbitis purpurea [19] = experiment: as above
Text: as §2

Amaranthus retroflexus [20] = experiment: as above
Text: as §2

Veronica persica [21] = experiment: as above
Text: as §2

Setaria viridis [22] = experiment: as above
Text: as §2

Viola tricolor [23] = experiment: as above
Text: as §2

Zea mays = experiment: Crop compatibility post-emergence, greenhouse pot test; conditions: application rate 5 g/ha
Procedure: as §1, with “plants.” for “plants. Tables A1 to A16 below show the efficacies of selected compounds of the general formula (I) according to tables I.1 to I.50 on various harmful plants and an application rate corresponding to 80 g/ha or lower that were obtained by the aforementioned trial method.”
(§3) Crop plant compatibilities were also scored correspondingly.
(§4) The effects observed are reported here on selected crop plants by comparison, with the untreated controls (values in %).

Triticum aestivum = experiment: as above
Procedure: as §1, with “plants.” for “plants. Tables A1 to A16 below show the efficacies of selected compounds of the general formula (I) according to tables I.1 to I.50 on various harmful plants and an application rate corresponding to 80 g/ha or lower that were obtained by the aforementioned trial method.”
as §3, §4

Alopecurus myosuroides [24] = experiment: Herbicidal action post-emergence, greenhouse pot test; conditions: application rate 80 g/ha, scored visually after about 3 weeks vs untreated controls
Procedure: as §1

Avena fatua = experiment: Herbicidal action pre-emergence, greenhouse pot test; conditions: application rate 320 g/ha
Text: as §2

Oryza sativa = experiment: Crop compatibility post-emergence, greenhouse pot test; conditions: application rate 20 g/ha
Procedure: as §1, with “plants.” for “plants. Tables A1 to A16 below show the efficacies of selected compounds of the general formula (I) according to tables I.1 to I.50 on various harmful plants and an application rate corresponding to 80 g/ha or lower that were obtained by the aforementioned trial method.”
as §3, §4

SMILES	Matricaria inodora (Efficacy in %) (Matricaria inodora [1])	Echinochloa crus-galli (Efficacy in %) (Echinochloa crus-galli [2])	Polygonum convolvulus (Efficacy in %) (Polygonum convolvulus [3])	Abutilon theophrasti (Efficacy in %) (Abutilon theophrasti [4])	Lolium rigidum (Efficacy in %) (Lolium rigidum [5])	Stellaria media (Efficacy in %) (Stellaria media [6])	Pharbitis purpurea (Efficacy in %) (Pharbitis purpurea [7])	Veronica persica (Efficacy in %) (Veronica persica [9])	Setaria viridis (Efficacy in %) (Setaria viridis [10])	Viola tricolor (Efficacy in %) (Viola tricolor [11]; application rate 80 g/ha)	Matricaria inodora (Efficacy in %) (Matricaria inodora [12]; application rate 320 g/ha)	Hordeum murinum (Efficacy in %) (Hordeum murinum)	Echinochloa crus-galli (Efficacy in %) (Echinochloa crus-galli [13])	Polygonum convolvulus (Efficacy in %) (Polygonum convolvulus [14]; application rate 320 g/ha)	Abutilon theophrasti (Efficacy in %) (Abutilon theophrasti [15]; application rate 320 g/ha)	Lolium rigidum (Efficacy in %) (Lolium rigidum [16]; application rate 320 g/ha)	Stellaria media (Efficacy in %) (Stellaria media [17]; application rate 320 g/ha)	Alopecurus myosuroides (Efficacy in %) (Alopecurus myosuroides [18])	Pharbitis purpurea (Efficacy in %) (Pharbitis purpurea [19]; application rate 320 g/ha)	Veronica persica (Efficacy in %) (Veronica persica [21]; application rate 320 g/ha)	further results
CC(Sc1cc(-n2c(=O)cc(C(F)(F)F)n(C)c2=O)c(F)cc1Cl)C(=O)OCCC(=O)O (centres unmarked) [I.1-1]	100%	100%	100%	100%	80%	100%	100%	100%	100%	100%	100%	90%	100%	100%	100%	100%	100%	100%	100%	100%	Amaranthus retroflexus (Efficacy in %) (Amaranthus retroflexus [8]; application rate 20 g/ha): 100%; Amaranthus retroflexus (Efficacy in %) (Amaranthus retroflexus [20]; application rate 20 g/ha): 100%; Setaria viridis (Efficacy in %) (Setaria viridis [22]; application rate 320 g/ha): 100%; Viola tricolor (Efficacy in %) (Viola tricolor [23]; application rate 320 g/ha): 100%; Zea mays (Efficacy in %) (Zea mays): 10%; Triticum aestivum (Efficacy in %) (Triticum aestivum; application rate 80 g/ha): 20%
CCOC(=O)CC(C)OC(=O)C(C)Sc1cc(-n2c(=O)cc(C(F)(F)F)n(C)c2=O)c(F)cc1Cl (centres unmarked) [I.1-23]	100%	100%	100%	100%	90%	100%	100%	100%	100%	–	–	100%	100%	–	–	–	–	100%	–	–	Alopecurus myosuroides (Efficacy in %) (Alopecurus myosuroides [24]): 90%; Amaranthus retroflexus (Efficacy in %) (Amaranthus retroflexus [8]; application rate 80 g/ha): 100%; Viola tricolor (Efficacy in %) (Viola tricolor [11]; application rate 20 g/ha): 100%; Matricaria inodora (Efficacy in %) (Matricaria inodora [12]; application rate 800 g/ha): 100%; Polygonum convolvulus (Efficacy in %) (Polygonum convolvulus [14]; application rate 80 g/ha): 100%; Abutilon theophrasti (Efficacy in %) (Abutilon theophrasti [15]; application rate 80 g/ha): 100%; Lolium rigidum (Efficacy in %) (Lolium rigidum [16]; application rate 80 g/ha): 100%; Stellaria media (Efficacy in %) (Stellaria media [17]; application rate 80 g/ha): 100%; Pharbitis purpurea (Efficacy in %) (Pharbitis purpurea [19]; application rate 80 g/ha): 100%; Amaranthus retroflexus (Efficacy in %) (Amaranthus retroflexus [20]; application rate 80 g/ha): 100%; Avena fatua (Efficacy in %) (Avena fatua): 100%; Veronica persica (Efficacy in %) (Veronica persica [21]; application rate 80 g/ha): 100%; Setaria viridis (Efficacy in %) (Setaria viridis [22]; application rate 80 g/ha): 100%; Viola tricolor (Efficacy in %) (Viola tricolor [23]; application rate 80 g/ha): 100%; Triticum aestivum (Efficacy in %) (Triticum aestivum; application rate 20 g/ha): 20%
CC(Sc1cc(-n2c(=O)cc(C(F)(F)F)n(C)c2=O)c(F)cc1Cl)C(=O)OCCC(N)=O (centres unmarked) [I.1-151]	100%	100%	100%	100%	–	90%	100%	100%	100%	100%	100%	80%	100%	100%	100%	90%	100%	–	100%	100%	Alopecurus myosuroides (Efficacy in %) (Alopecurus myosuroides [24]): 90%; Amaranthus retroflexus (Efficacy in %) (Amaranthus retroflexus [8]; application rate 80 g/ha): 100%; Amaranthus retroflexus (Efficacy in %) (Amaranthus retroflexus [20]; application rate 80 g/ha): 100%; Avena fatua (Efficacy in %) (Avena fatua): 90%; Setaria viridis (Efficacy in %) (Setaria viridis [22]; application rate 320 g/ha): 100%; Viola tricolor (Efficacy in %) (Viola tricolor [23]; application rate 320 g/ha): 100%; Oryza sativa (Efficacy in %) (Oryza sativa): 10%; Zea mays (Efficacy in %) (Zea mays): 20%; Triticum aestivum (Efficacy in %) (Triticum aestivum; application rate 80 g/ha): 20%

Reference: US11274083B2, “Substituted thiophenyl uracils, salts thereof and the use thereof as herbicidal agents” (Syngenta Crop Protection AG, priority 2017, dated 2022)
